In brackets after ≈: the same amount, converted by molar mass. Values belong to the compound of their own block, whether it stands above or below them.
Tests used:
Staphylococcus aureus [1] = experiment: Antimicrobial activity against Staphylococcus aureus 29213 assessed as inhibition of microbial growth incubated for 24 hrs by broth-microdilution assay; format: functional
Staphylococcus aureus [2] = experiment: Antimicrobial activity against methicillin resistant Staphylococcus aureus 43300 assessed as inhibition of microbial growth incubated for 24 hrs by broth-microdilution assay; format: functional
[3] = system: Staphylococcus epidermidis; experiment: Antimicrobial activity against Staphylococcus epidermidis ATCC 12228 assessed as inhibition of microbial growth incubated for 24 hrs by broth-microdilution assay; format: functional; settings: for MIC: Staphylococcus epidermidis
[4] = system: Staphylococcus epidermidis; experiment: Antimicrobial activity against Staphylococcus epidermidis ATCC 35984 assessed as inhibition of microbial growth incubated for 24 hrs by broth-microdilution assay; format: functional; settings: for MIC: Staphylococcus epidermidis
Candida albicans [5] = experiment: Antifungal activity against Candida albicans ATCC 90028 assessed as reduction in fungal growth incubated for 48 hrs by CLSI based analysis; format: functional
[6] = Acute toxicity in zebrafish embryo assessed as mortality rate at 4 microg/ml preincubated with compound for 24 hrs and measured after 24 hrs post fertilization; design: species or system Danio rerio; settings: in vivo, at 4 µg/mL
[7] = Acute toxicity in zebrafish embryo assessed as mortality rate at 16 microg/ml preincubated with compound for 24 hrs and measured after 24 hrs post fertilization; design: species or system Danio rerio; settings: in vivo, at 16 µg/mL
[8] = Acute toxicity in zebrafish embryo assessed as mortality rate at 8 microg/ml preincubated with compound for 24 hrs and measured after 24 hrs post fertilization; design: species or system Danio rerio; settings: in vivo, at 8 µg/mL
Pseudomonas aeruginosa [9] = experiment: Antimicrobial activity against Pseudomonas aeruginosa PAO1 assessed as inhibition of microbial growth at 128 microg/ml incubated for 24 hrs by broth-microdilution assay relative to control; format: functional
Klebsiella pneumoniae [10] = experiment: Antimicrobial activity against Klebsiella pneumoniae ATCC 13883 assessed as inhibition of microbial growth incubated for 24 hrs by broth-microdilution assay; format: functional
Klebsiella pneumoniae [11] = experiment: Antimicrobial activity against Klebsiella pneumoniae ATCC BAA1705 assessed as inhibition of microbial growth incubated for 24 hrs by broth-microdilution assay; format: functional
Klebsiella pneumoniae [12] = experiment: Antimicrobial activity against Carbapenem -resistant Klebsiella pneumoniae ATCC 13883 assessed as inhibition of microbial growth incubated for 24 hrs by broth-microdilution assay; format: functional
Klebsiella pneumoniae [13] = experiment: Antimicrobial activity against Carbapenem-resistant Klebsiella pneumoniae ATCC BAA1705 assessed as inhibition of microbial growth incubated for 24 hrs by broth-microdilution assay; format: functional
Pseudomonas aeruginosa [14] = experiment: Antimicrobial activity against Pseudomonas aeruginosa 27853 assessed as inhibition of microbial growth at 128 microg/ml incubated for 24 hrs by broth-microdilution assay relative to control; format: functional
Staphylococcus aureus [15] = experiment: Antimicrobial activity against Staphylococcus aureus ATCC 29213 assessed as inhibition of microbial growth incubated for 24 hrs by broth-microdilution assay; format: functional; settings: for MIC: Staphylococcus aureus, ATCC 29213, read-out: MIC100
Staphylococcus aureus [16] = experiment: Antimicrobial activity against Staphylococcus aureus ATCC 43300 assessed as inhibition of microbial growth incubated for 24 hrs by broth-microdilution assay; format: functional; settings: for MIC: Staphylococcus aureus, ATCC 43300, read-out: MIC100
Pseudomonas aeruginosa [17] = experiment: Antimicrobial activity against Pseudomonas aeruginosa ATCC 27853 assessed as inhibition of microbial growth incubated for 24 hrs by broth-microdilution assay; format: functional
Pseudomonas aeruginosa [18] = experiment: Antimicrobial activity against Pseudomonas aeruginosa PAO1 assessed as inhibition of microbial growth incubated for 24 hrs by broth-microdilution assay; format: functional
Candida albicans [19] = experiment: Antifungal activity against Candida albicans ATCC 10231 assessed as reduction in fungal growth incubated for 48 hrs by CLSI based analysis; format: functional; settings: read-out: MIC100
Staphylococcus aureus [20] = experiment: Synergistic antimicrobial activity against methicillin resistant Staphylococcus aureus 43300 assessed as inhibition of microbial growth incubated for 24 hrs in presence of Oxacillin by checkerboard assay; format: functional; settings: read-out: MIC100
Klebsiella pneumoniae [21] = experiment: Synergistic antimicrobial activity against Klebsiella pneumoniae ATCC BAA1705 assessed as inhibition of microbial growth incubated for 24 hrs in presence of Imipenem by checkerboard assay; format: functional; settings: read-out: MIC100
Candida albicans [22] = experiment: Synergistic antifungal activity against Candida albicans ATCC 10231 assessed as reduction in fungal growth incubated for 48 hrs in presence of Voriconazole by CLSI based analysis; format: functional; settings: read-out: MIC100
Staphylococcus aureus [23] = experiment: Synergistic antimicrobial activity against methicillin resistant Staphylococcus aureus 43300 assessed as Oxacillin MIC incubated for 24 hrs by checkerboard assay; format: functional; settings: read-out: MIC100
Klebsiella pneumoniae [24] = experiment: Synergistic antimicrobial activity against Klebsiella pneumoniae ATCC BAA1705 assessed as Imipenem MIC incubated for 24 hrs by checkerboard assay; format: functional; settings: read-out: MIC100
Candida albicans [25] = experiment: Synergistic antifungal activity against Candida albicans ATCC 10231 assessed as Voriconazole MIC incubated for 48 hrs by CLSI based analysis; format: functional; settings: read-out: MIC100
Staphylococcus aureus [26] = experiment: Synergistic antimicrobial activity against methicillin resistant Staphylococcus aureus 43300 assessed as fractional inhibitory concentration index incubated for 24 hrs in presence of Oxacillin by checkerboard assay; format: functional
Klebsiella pneumoniae [27] = experiment: Synergistic antimicrobial activity against Klebsiella pneumoniae ATCC BAA1705 assessed as fractional inhibitory concentration index incubated for 24 hrs in presence of Imipenem by checkerboard assay; format: functional
Candida albicans [28] = experiment: Synergistic antifungal activity against Candida albicans ATCC 10231 assessed as fractional inhibitory concentration index incubated for 48 hrs in presence of Voriconazole by CLSI based analysis; format: functional
[29] = Acute toxicity in zebrafish embryo assessed as mortality rate at 0.7 microg/ml preincubated with compound for 24 hrs and measured after 96 hrs post fertilization; design: species or system Danio rerio; settings: in vivo, at 0.7 µg/mL
[30] = Acute toxicity in zebrafish embryo assessed as mortality rate at 2 microg/ml preincubated with compound for 24 hrs and measured after 96 hrs post fertilization; design: species or system Danio rerio; settings: in vivo, at 2 µg/mL
[31] = Acute toxicity in zebrafish embryo assessed as mortality rate at 4 microg/ml preincubated with compound for 24 hrs and measured after 96 hrs post fertilization; design: species or system Danio rerio; settings: in vivo, at 4 µg/mL
[32] = Acute toxicity in zebrafish embryo assessed as mortality rate at 8 microg/ml preincubated with compound for 24 hrs and measured after 96 hrs post fertilization; design: species or system Danio rerio; settings: in vivo, at 8 µg/mL
[33] = Acute toxicity in zebrafish embryo assessed as mortality rate at 16 microg/ml preincubated with compound for 24 hrs and measured after 96 hrs post fertilization; design: species or system Danio rerio; settings: in vivo, at 16 µg/mL
[34] = Acute toxicity in zebrafish embryo assessed as mortality rate at 32 microg/ml preincubated with compound for 24 hrs and measured after 96 hrs post fertilization; design: species or system Danio rerio; settings: in vivo, at 32 µg/mL
[35] = Acute toxicity in zebrafish embryo assessed as mortality rate at 32 microg/ml preincubated with compound for 24 hrs and measured after 24 hrs post fertilization; design: species or system Danio rerio; settings: in vivo, at 32 µg/mL
[36] = Acute toxicity in zebrafish embryo assessed as mortality rate at 4 microg/ml preincubated with compound for 24 hrs and measured after 48 to 72 hrs post fertilization; design: species or system Danio rerio; settings: in vivo, at 4 µg/mL
[37] = Acute toxicity in zebrafish embryo assessed as mortality rate at 8 microg/ml preincubated with compound for 24 hrs and measured after 48 to 72 hrs post fertilization; design: species or system Danio rerio; settings: in vivo, at 8 µg/mL
[38] = Acute toxicity in zebrafish embryo assessed as mortality rate at 16 microg/ml preincubated with compound for 24 hrs and measured after 48 to 72 hrs post fertilization; design: species or system Danio rerio; settings: in vivo, at 16 µg/mL
[39] = Acute toxicity in zebrafish embryo preincubated with compound for 24 hrs and measured after 48 to 72 hrs post fertilization; design: species or system Danio rerio; settings: in vivo
[40] = Acute toxicity in zebrafish embryo preincubated with compound for 24 hrs and measured after 24 hrs post fertilization; design: species or system Danio rerio; settings: in vivo
[41] = Acute toxicity in zebrafish embryo preincubated with compound for 24 hrs and measured after 96 hrs post fertilization; design: species or system Danio rerio; settings: in vivo

Compound: CC1=C(CC/C=C(/C)C(=O)NC(=N)N)[C@@]2(C)CCCC(C)(C)[C@@H]2CC1
MIC (Staphylococcus aureus [1]): 4 µg/mL | MIC (Staphylococcus aureus [2]; read-out: MIC): 4 µg/mL | MIC ([3]; ATCC 12228, read-out: MIC): 4 µg/mL | MIC ([4]; ATCC 35984, read-out: MIC): 4 µg/mL | MIC (Candida albicans [5]; read-out: MIC): 8 µg/mL (≈ 23.2 µM)

Compound: CC1(C)CCC[C@]2(C)[C@H]3CC[C@](C)(CC(=O)NC(=N)N)O[C@]3(C)CC[C@@H]12
mortality at 24 h, 4 microg/ml [6]: 0% | mortality at 24 h, 16 microg/ml [7]: 75% | mortality at 24 h, 8 microg/ml [8]: 15% | inhibition at 128 µg/mL (Pseudomonas aeruginosa [9]): 75% | MIC (Staphylococcus aureus [1]): 4 µg/mL | MIC (Staphylococcus aureus [2]; read-out: MIC): 4 µg/mL | MIC ([3]; ATCC 12228, read-out: MIC): 4 µg/mL | MIC ([4]; ATCC 35984, read-out: MIC): 4 µg/mL | MIC (Klebsiella pneumoniae [10]; read-out: MIC): 16 µg/mL | MIC (Klebsiella pneumoniae [11]; read-out: MIC): 32 µg/mL | MIC (Klebsiella pneumoniae [12]): 32 µg/mL | MIC (Klebsiella pneumoniae [13]): 32 µg/mL | inhibition at 128 µg/mL (Pseudomonas aeruginosa [14]): 70% | MIC (Candida albicans [5]; read-out: MIC): 16 µg/mL (≈ 44 µM) | MIC (Staphylococcus aureus [15]): 8 µg/mL | MIC (Staphylococcus aureus [16]): 8 µg/mL | MIC70 (Pseudomonas aeruginosa [17]): 128 µg/mL | MIC75 (Pseudomonas aeruginosa [18]): 128 µg/mL | MIC (Candida albicans [19]): 16 µg/mL (≈ 44 µM) | MIC (Staphylococcus aureus [20]): 4 µg/mL | MIC (Klebsiella pneumoniae [21]): 16 µg/mL | MIC (Candida albicans [22]): 4 µg/mL | MIC (Staphylococcus aureus [23]): 0.125 µg/mL | MIC (Klebsiella pneumoniae [24]): 2 µg/mL | MIC (Candida albicans [25]): 0.125 µg/mL | fractional inhibitory concentration index (FICI) (Staphylococcus aureus [26]): 0.512 | fractional inhibitory concentration index (FICI) (Klebsiella pneumoniae [27]): 0.6 | fractional inhibitory concentration index (FICI) (Candida albicans [28]): 0.254 | mortality at 96 h, 0.7 microg/ml [29]: 0% | mortality at 96 h, 2 microg/ml [30]: 0% | mortality at 96 h, 4 microg/ml [31]: 5% | mortality at 96 h, 8 microg/ml [32]: 95% | mortality at 96 h, 16 microg/ml [33]: 100% | mortality at 96 h, 32 microg/ml [34]: 100% | mortality at 24 h, 32 microg/ml [35]: 95% | mortality at 4 microg/ml [36]: 0% | mortality at 24 h, 8 microg/ml [37]: 35% | mortality at 16 microg/ml [38]: 100% | LC50 at 24 h [39]: 8.1 µg/mL (≈ 22.3 µM) | LC50 at 24 h [40]: 14 µg/mL (≈ 38.5 µM) | LC50 at 96 h [41]: 6 µg/mL (≈ 16.5 µM)

MIC70 [3]: 64 µg/mL | MIC70 [4]: 64 µg/mL | MIC (Klebsiella pneumoniae [10]; read-out: MIC100): > 128 µg/mL | MIC (Klebsiella pneumoniae [11]; read-out: MIC100): > 128 µg/mL | MIC (Candida albicans [5]; read-out: MIC100): > 128 µg/mL | MIC70 (Staphylococcus aureus [15]): 64 µg/mL | MIC70 (Staphylococcus aureus [16]): 64 µg/mL | MIC (Pseudomonas aeruginosa [17]; Pseudomonas aeruginosa, ATCC 27853, read-out: MIC100): > 128 µg/mL | MIC (Pseudomonas aeruginosa [18]; Pseudomonas aeruginosa, PAO1, read-out: MIC100): > 128 µg/mL | MIC (Candida albicans [19]): > 128 µg/mL
Compound: CC1(C)CCC[C@]2(C)[C@H]3CC[C@](C)(CC(=O)O)O[C@]3(C)CC[C@@H]12

Compound: Cc1onc(-c2ccccc2)c1C(=O)N[C@@H]1C(=O)N2[C@@H]1SC(C)(C)[C@@H]2C(=O)O [OXACILLIN]
MIC (Staphylococcus aureus [2]; read-out: MIC100): 10 µg/mL | MIC ([3]; ATCC 12228, read-out: MIC100): 2 µg/mL | MIC ([4]; ATCC 35984, read-out: MIC100): 2 µg/mL | MIC (Staphylococcus aureus [15]): 2 µg/mL | MIC (Staphylococcus aureus [16]): 2 µg/mL

Compound: C[C@@H]1[C@H](O)[C@@H](C)/C=C/C=C/C=C/C=C/C=C/C=C/C=C/[C@H](O[C@@H]2O[C@H](C)[C@@H](O)[C@H](N)[C@@H]2O)C[C@@H]2O[C@](O)(C[C@@H](O)C[C@@H](O)[C@H](O)CC[C@@H](O)C[C@@H](O)CC(=O)O[C@H]1C)C[C@H](O)[C@H]2C(=O)O [AMPHOTERICIN B]
MIC (Candida albicans [5]; read-out: MIC100): 4 µg/mL (≈ 4.33 µM) | MIC (Candida albicans [19]): 4 µg/mL (≈ 4.33 µM)

Compound: C[C@@H](c1ncncc1F)[C@](O)(Cn1cncn1)c1ccc(F)cc1F [VORICONAZOLE]
MIC (Candida albicans [5]; read-out: MIC100): ≤ 0.12 µg/mL | MIC (Candida albicans [19]): ≥ 1 µg/mL

— ChEMBL document CHEMBL5537143, “Synthesis and antimicrobial properties of guanidine-functionalized labdane type diterpenoids” (Eur J Med Chem, 2024)
